A melting point compilation (Tetko et al.)

Compound	melting point
O=C(C=Cc1ccc(-c2ccc([N+](=O)[O-])cc2)o1)c1ccccc1	157 to 158 °C
O=C1Nc2ccccc2C=NC2CCCCC2N=Cc2ccccc2NC1=O (stereo unspecified)	223 to 225 °C
O=C(CBr)c1csc2ccccc12	138 to 139 °C
CC(C(C)P(c1ccccc1)c1ccccc1)P(c1ccccc1)c1ccccc1 (stereo unspecified)	104 to 109 °C
CN1C2CCC1CC(O)C2 (stereo unspecified)	109 °C
Sc1ccc(S)cc1	97 °C
CC(CO)(CO)CO	204 °C
Cc1c([N+](=O)[O-])cc(C(=O)N2CCCCCC2)cc1[N+](=O)[O-]	106 °C
O=C1C=CC(=O)C(Cl)=C1	52 to 57 °C
CCc1cccc(C)c1N(C(=O)CCl)C(C)COC (stereo unspecified)	-40 °C
C=CC=CC(=O)O	79 °C
CCOC(=O)c1cn[nH]c1	77 °C
O=C(O)c1cc(I)c(O)c(I)c1	237 °C
O=C(Nc1ncc([N+](=O)[O-])s1)c1cccs1	256 °C
Cc1nccn1-c1ccccc1C(=O)O	232 to 234 °C
CCOC(=O)C1C(c2ccc(OC)cc2)C(C(=O)OCC)C(O)(C(F)(F)F)NC1(O)C(F)(F)F (stereo unspecified)	109 °C
CCCCc1ccc2ccccc2c1	-5 °C
CC(F)(F)CCl	-56.2 °C
O=[N+]([O-])c1ccc(O)c(-c2cc([N+](=O)[O-])ccc2O)c1	186 °C
C=COC(C)=O	-93.2 °C
O=C1CCC(c2ccccc2)(C2CCN(Cc3ccccc3)CC2)C(=O)N1 (stereo unspecified)	156 °C
NCCCNCCO	15 to 19 °C
CCCCC=CCCC=CCCCCCCOC(C)=O	25 °C

Compound	melting point
Brc1ccc(I)cn1	124 °C
CC(=O)CC(=O)Nc1ccccc1C	105 °C
Cc1c(C)c(C)c2c(c1C)CC2(C)O (stereo unspecified)	90 °C
N#CC(C#N)=Cc1ccc(Cl)cc1	91 °C
O=C(Nc1ccccc1)c1nn(-c2ccccc2)c(-c2ccc([N+](=O)[O-])cc2)c1S(=O)(=O)c1ccccc1	240 °C
O=Cc1ccccc1CN1CCOCC1	67 to 68 °C
CCOC(=O)c1cc2c(=O)oc3ccccc3c2n(C)c1=O	202 to 203 °C
N#CC(N)=C(N)C#N	178 to 179 °C
Nc1nc[nH]c(=O)n1	300 °C
COCCOCCOCCOC	-45 °C
C#CC1(O)CCC2C3CCC4CC(O)CCC4(C)C3CCC21C (stereo unspecified)	257 °C
CCCCCCCCc1ccc(NC(=O)Oc2ccc(OC)cc2)cc1	133 °C
CN(C)C=C[N+](=O)[O-]	103 to 105 °C
c1cc(-c2nnn[nH]2)ccn1	265 to 267 °C
Clc1c2ccccc2nc2ccccc12	121 °C
CC(C)C(c1ccccc1)C(C)C	-24.5 °C
CCOC(=O)C(CCc1ccccc1)NC(C)C(=O)N1C(=O)N(C)CC1C(=O)O (stereo unspecified)	139 °C
CC(C)(C)OC(=O)N1CCN(Cc2cccc([N+](=O)[O-])c2)CC1	84 to 85 °C
CCCCC(CC)CNCC(CC)CCCC (stereo unspecified)	-60 °C
CC(=O)C[C@@]1(O)C(=O)c2ccccc2-c2ccccc21	66.8 °C
COc1ccc(C2CC(=O)c3c(O)cc(OC4OC(COC5OC(C)C(O)C(O)C5O)C(O)C(O)C4O)cc3O2)cc1O (stereo unspecified)	262 °C
O=S(=O)(Cl)c1cc2ccccc2o1	79 to 81 °C

Other lines, results leading:

melting point	Compound
109 to 110 °C	Cc1noc(-c2ccccc2)c1CO
109 to 110 °C	O=Cc1ccc(-c2cc(C(F)(F)F)cc(C(F)(F)F)c2)o1
84 to 85 °C	COc1ccc2c(c1)CC1(CCC(c3ccc(C(C)(C)C)cc3)CC1)C2 (stereo unspecified)
168 to 170 °C	Cc1cc(Cl)cc(Cl)c1S(N)(=O)=O
158 to 160 °C	Sc1nnc(-c2ccc(Cl)cc2Cl)n1Cc1ccco1
75 °C	Nc1cc(F)c(Br)cc1F
69.4 °C	CCCCCC(C)OC(=O)COc1ccc(Cl)c2cccnc12 (stereo unspecified)
77.5 °C	CCC(C(=O)OC)c1ccccc1 (stereo unspecified)
2 to 3 °C	OCCc1ccccc1C(F)(F)F
81 °C	COc1ccc(F)c(F)c1C#N
276 °C	CC(=O)NC1=NC(=O)C(=Cc2coc3ccc(Cl)cc3c2=O)N1C
122 to 124 °C	CCNC=C(C(=O)OCC)C(=O)c1cnc(Cl)c(F)c1
212 °C	COC(=O)c1nc(Cl)c(N)nc1N
207 to 209 °C	O=C(O)c1ccc(O)cc1Cl
121 to 126 °C	O=C(O)c1c(F)cccc1I
88 to 93 °C	COc1ccc(C=CC(=O)c2ccc(F)cc2)cc1OC
136 to 137 °C	Oc1cc(C(F)(F)F)nc2c(Br)cccc12
168 °C	O=C(O)c1ccccc1OP(=O)(O)O
45 °C	O=S(=O)(Nc1ccc(F)cc1C(F)(F)F)C(F)(F)F
82 to 83 °C	COc1ccc2nsnc2c1
228 °C	O=[N+]([O-])c1ccc(NN=C2c3ccccc3C2Cl)c([N+](=O)[O-])c1 (stereo unspecified)
